Measured values published in patent publication US11780830B2, “Triazolone derivatives or salts thereof and pharmaceutical compositions comprising the same” (YUHAN CORPORATION, priority 2018, dated 2023).
Where a name gives a salt, the structure may show the parent alone.

Assays:
Format in all cases: biochemical
recombinant human VAP-1 = biological target: T1, recombinant human VAP-1 (Homo sapiens, UniProt Q16853); assay: Activity on recombinant human VAP-1, HRP-coupled Amplex Red hydrogen peroxide assay; conditions: substrate 1 mM benzylamine; compound incubated with enzyme at 37° C. for 30 minutes; pH 7.4; read-out: Inhibitory Activity (IC50, nM) human VAP-1
T1 construct: purchased R&D systems
T1 sequence (Q16853 1-763): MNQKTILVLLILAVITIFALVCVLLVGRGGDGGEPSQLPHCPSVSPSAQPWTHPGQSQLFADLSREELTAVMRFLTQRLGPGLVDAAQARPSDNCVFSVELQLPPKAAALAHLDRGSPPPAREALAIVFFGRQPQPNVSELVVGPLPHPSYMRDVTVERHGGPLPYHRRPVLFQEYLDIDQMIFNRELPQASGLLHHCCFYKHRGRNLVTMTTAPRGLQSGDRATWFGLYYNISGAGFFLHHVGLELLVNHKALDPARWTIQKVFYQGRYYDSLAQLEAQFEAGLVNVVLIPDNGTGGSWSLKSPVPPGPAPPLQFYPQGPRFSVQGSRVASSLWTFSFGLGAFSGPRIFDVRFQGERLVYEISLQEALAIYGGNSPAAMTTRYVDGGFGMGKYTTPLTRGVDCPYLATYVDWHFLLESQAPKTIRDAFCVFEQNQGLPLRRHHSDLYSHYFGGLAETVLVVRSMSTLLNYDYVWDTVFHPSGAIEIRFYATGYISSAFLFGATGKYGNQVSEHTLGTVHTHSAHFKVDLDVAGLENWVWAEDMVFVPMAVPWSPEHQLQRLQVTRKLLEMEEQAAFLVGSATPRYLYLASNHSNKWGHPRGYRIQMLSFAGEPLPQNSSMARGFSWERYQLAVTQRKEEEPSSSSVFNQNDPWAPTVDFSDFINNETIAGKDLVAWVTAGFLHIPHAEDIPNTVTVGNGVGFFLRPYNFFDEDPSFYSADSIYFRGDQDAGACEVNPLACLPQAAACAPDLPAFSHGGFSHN
How it was run: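 8-point 1:3 dilutions, final DMSO <1%; 30 min enzyme preincubation, 37 °C, pH 7.4 phosphate. Start: 1 mM benzylamine + 200 uM Amplex Red + 1 U/mL HRP. Read ex544/em590 over 1-2 h; % rate decrease vs DMSO control, 4-parameter logistic IC50.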

[1] = biological target: T2, recombinant human MAO-A (monoamine oxidase-A) (Homo sapiens, UniProt P21397); assay: Activity on recombinant human MAO-A, method similar to the VAP-1 assay; conditions: substrate 0.5 mM tyramine; read-out: Inhibitory Activity (IC50, nM) MAO-A
T2 construct: purchased Sigma-Aldrich
T2 sequence (P21397 1-527): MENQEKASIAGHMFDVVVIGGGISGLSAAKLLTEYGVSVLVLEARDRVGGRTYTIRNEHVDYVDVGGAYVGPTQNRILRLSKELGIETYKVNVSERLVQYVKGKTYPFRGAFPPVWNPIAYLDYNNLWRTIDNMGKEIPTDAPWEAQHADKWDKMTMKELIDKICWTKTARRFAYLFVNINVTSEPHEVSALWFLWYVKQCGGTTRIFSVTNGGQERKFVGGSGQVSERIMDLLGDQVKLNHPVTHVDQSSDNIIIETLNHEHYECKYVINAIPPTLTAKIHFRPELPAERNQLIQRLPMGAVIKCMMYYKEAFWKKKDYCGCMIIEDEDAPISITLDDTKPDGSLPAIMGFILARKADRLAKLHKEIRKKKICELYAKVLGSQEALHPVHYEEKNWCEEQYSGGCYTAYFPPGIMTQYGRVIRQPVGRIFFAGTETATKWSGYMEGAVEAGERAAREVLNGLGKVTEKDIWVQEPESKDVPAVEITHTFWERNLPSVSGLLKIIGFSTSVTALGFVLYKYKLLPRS
How it was run: (§1)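 HRP-coupled Amplex Red H2O2 assay, 50 mM sodium phosphate pH 7.4; compounds (8-point 1:3 series, final DMSO <1%) preincubated with enzyme 30 min at 37° C, then 200 uM Amplex Red, 1 U/mL HRP and substrate (MAO-A 0.5 mM tyramine; MAO-B 1 mM benzylamine) added. Resorufin fluorescence (ex 544/em 590 nm) read over 1-2 h; IC50 from four-parameter logistic fit.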

[2] = biological target: T3, recombinant human MAO-B (monoamine oxidase-B) (Homo sapiens, UniProt P27338); assay: Activity on recombinant human MAO-B, method similar to the VAP-1 assay; conditions: substrate 1 mM benzylamine; read-out: Inhibitory Activity (IC50, nM) MAO-B
T3 construct: purchased Sigma-Aldrich
T3 sequence (P27338 1-520): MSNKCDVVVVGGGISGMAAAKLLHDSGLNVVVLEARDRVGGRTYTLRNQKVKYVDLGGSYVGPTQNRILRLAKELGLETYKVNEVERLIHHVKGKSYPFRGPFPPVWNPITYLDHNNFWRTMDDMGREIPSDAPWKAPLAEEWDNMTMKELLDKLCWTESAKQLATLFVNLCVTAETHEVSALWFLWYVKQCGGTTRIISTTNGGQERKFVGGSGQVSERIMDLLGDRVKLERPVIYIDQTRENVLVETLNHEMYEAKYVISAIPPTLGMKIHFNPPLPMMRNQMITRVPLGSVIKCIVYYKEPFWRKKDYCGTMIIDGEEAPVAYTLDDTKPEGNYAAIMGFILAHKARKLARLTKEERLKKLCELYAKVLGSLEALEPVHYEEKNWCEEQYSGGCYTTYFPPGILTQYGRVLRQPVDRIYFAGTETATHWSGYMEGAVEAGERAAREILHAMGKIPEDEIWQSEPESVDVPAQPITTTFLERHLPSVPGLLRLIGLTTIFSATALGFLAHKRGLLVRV
How it was run: as §1

[3] = biological target: T4, recombinant human DAO (diamine oxidase) (Homo sapiens, UniProt P19801); assay: Activity on recombinant human DAO, method similar to the VAP-1 assay; conditions: substrate 1 mM putrescine; read-out: Inhibitory Activity (IC50, nM) DAO
T4 construct: purchased R&D systems
T4 sequence (P19801 20-751): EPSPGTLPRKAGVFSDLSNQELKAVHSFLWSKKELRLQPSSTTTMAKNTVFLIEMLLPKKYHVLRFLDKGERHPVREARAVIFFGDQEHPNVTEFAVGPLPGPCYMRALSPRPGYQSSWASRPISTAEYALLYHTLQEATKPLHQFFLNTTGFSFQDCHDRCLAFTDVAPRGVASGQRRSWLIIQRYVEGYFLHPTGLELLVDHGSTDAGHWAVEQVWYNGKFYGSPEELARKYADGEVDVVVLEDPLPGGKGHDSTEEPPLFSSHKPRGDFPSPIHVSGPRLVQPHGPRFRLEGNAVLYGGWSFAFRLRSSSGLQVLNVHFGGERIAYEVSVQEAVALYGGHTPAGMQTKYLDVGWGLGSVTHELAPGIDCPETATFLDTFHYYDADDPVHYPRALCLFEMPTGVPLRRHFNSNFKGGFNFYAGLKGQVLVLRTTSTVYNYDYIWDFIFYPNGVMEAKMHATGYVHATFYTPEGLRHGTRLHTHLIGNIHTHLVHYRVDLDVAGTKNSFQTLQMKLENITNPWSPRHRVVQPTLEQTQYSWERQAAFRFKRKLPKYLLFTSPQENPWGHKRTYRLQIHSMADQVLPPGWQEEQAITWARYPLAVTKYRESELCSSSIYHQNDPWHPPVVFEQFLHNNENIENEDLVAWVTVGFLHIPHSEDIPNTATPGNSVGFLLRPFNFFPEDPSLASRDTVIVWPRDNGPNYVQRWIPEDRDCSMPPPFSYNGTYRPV
How it was run: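 Inhibition of recombinant human diamine oxidase (DAO, R&D systems) was assessed by the same approach as the VAP-1 assay, using 1 mM putrescine as substrate. Hydrogen peroxide formed was detected through an HRP-coupled Amplex Red reaction yielding fluorescent resorufin, read at 544 nm excitation and 590 nm emission. IC50 values came from four-parameter logistic fitting in GraphPad Prism.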

IC50 (recombinant human VAP-1) [nM] | IC50 [1] [nM] | IC50 [2] [nM] | IC50 [3] [nM] | Compound
0.6 | > 100000 | > 10000 | 250 | Cn1cnc2cc(/C=C/c3ccc(Cn4cnn(C/C(=C/F)CN)c4=O)s3)cnc21 [Example 123, 2-[(E)-2-(aminomethyl)-3-fluoro-allyl]-4-[[5-[(E)-2-(3-methylimidazo[4,5-b]pyridin-6-yl)vinyl]-2-thienyl]methyl]-1,2,4-triazol-3-one hydrochloride]
0.1 | > 100000 | 5100 | 270 | NC/C(=C\F)Cn1ncn(Cc2ccc(/C=C/c3cnc4c(c3)NC(=O)CO4)s2)c1=O [Example 124, 7-[(E)-2-[5-[[1-[(E)-2-(aminomethyl)-3-fluoro-allyl]-5-oxo-1,2,4-triazol-4-yl]methyl]-2-thienyl]vinyl]-1H-pyrido[2,3-b][1,4]oxazin-2-one hydrochloride]
3.5 | > 100000 | 2100 | 1600 | NC/C(=C\F)Cn1ncn(Cc2ccc(C#Cc3cccc(N)c3)s2)c1=O [Example 125, 2-[(2E)-2-(aminomethyl)-3-fluoroprop-2-en-1-yl]-4-(5-[(3-aminophenyl)ethynyl]thiophen-2-ylmethyl)-2,4-dihydro-3H-1,2,4-triazol-3-one hydrochloride]
3.4 | 57000 | 250 | 1000 | COc1ccc(C#Cc2ccc(Cn3cnn(C/C(=C/F)CN)c3=O)s2)cc1 [Example 126, 2-[(2E)-2-(aminomethyl)-3-fluoroprop-2-en-1-yl]-4-(5-[(4-methoxyphenyl)ethynyl]thiophen-2-ylmethyl)-2,4-dihydro-3H-1,2,4-triazol-3-one hydrochloride]
0.8 | > 100000 | 150 | 910 | NC/C(=C\F)Cn1ncn(Cc2ccc(C#Cc3cccnc3)s2)c1=O [Example 127, 2-[(2E)-2-(aminomethyl)-3-fluoroprop-2-en-1-yl]-4-[5-(pyridin-3-ylethynyl)thiophen-2-yl]methyl-2,4-dihydro-3H-1,2,4-triazol-3-one hydrochloride]
0.7 | 30000 | 490 | 9800 | CN(C)c1ccc(C#Cc2ccc(Cn3cnn(C/C(=C/F)CN)c3=O)s2)cn1 [Example 128, 2-[(E)-2-(aminomethyl)-3-fluoro-allyl]-4-[[5-[2-[6-(dimethylamino)-3-pyridyl]ethynyl]-2-thienyl]methyl]-1,2,4-triazol-3-one]
0.6 | > 100000 | 770 | 360 | NC/C(=C\F)Cn1ncn(Cc2ccc(C#Cc3ccc(N4CCOCC4)nc3)s2)c1=O [Example 129, 2-[(E)-2-(aminomethyl)-3-fluoro-allyl]-4-[[5-[2-(6-morpholino-3-pyridyl)ethynyl]-2-thienyl]methyl]-1,2,4-triazol-3-one hydrochloride]
0.5 | 57400 | 440 | 1500 | Cn1cncc1C#Cc1ccc(Cn2cnn(C/C(=C/F)CN)c2=O)s1 [Example 130, 2-[(2E)-2-(aminomethyl)-3-fluoroprop-2-en-1-yl]-4-(5-[(1-methyl-1H-imidazol-5-yl)ethynyl]thiophen-2-ylmethyl)-2,4-dihydro-3H-1,2,4-triazol-3-one hydrochloride]
2.3 | > 100000 | 240 | 1300 | Cn1cc(C#Cc2ccc(Cn3cnn(C/C(=C/F)CN)c3=O)s2)cn1 [Example 131, 2-[(2E)-2-(aminomethyl)-3-fluoroprop-2-en-1-yl]-4-(5-[(1-methyl-1H-pyrazol-4-yl)ethynyl]thiophen-2-ylmethyl)-2,4-dihydro-3H-1,2,4-triazol-3-one hydrochloride]
3.1 | > 100000 | 2500 | 1400 | NC/C(=C\F)Cn1ncn(Cc2ccc(C#CCN3CCS(=O)(=O)CC3)s2)c1=O [Example 132, 2-[(2E)-2-(aminomethyl)-3-fluoroprop-2-en-1-yl]-4-(5-[3-(1,1-dioxidothiomorpholin-4-yl)prop-1-yn-1-yl]thiophen-2-ylmethyl)-2,4-dihydro-3H-1,2,4-triazol-3-one hydrochloride]
0.2 | 49000 | 180 | 530 | NC/C(=C\F)Cn1ncn(Cc2ccc(C#Cc3ccc4c(c3)CCC(=O)N4)s2)c1=O [Example 133, 6-[2-[5-[[1-[(E)-2-(aminomethyl)-3-fluoro-allyl]-5-oxo-1,2,4-triazol-4-yl]methyl]-2-thienyl]ethynyl]-3,4-dihydro-1H-quinolin-2-one hydrochloride]
2 | 7100 | 300 | 2100 | NC/C(=C\F)Cn1ncn(Cc2ccc(C#Cc3ccc4c(c3)NCCO4)s2)c1=O [Example 134, 2-[(E)-2-(aminomethyl)-3-fluoro-allyl]-4-[[5-[2-(3,4-dihydro-2H-1,4-benzoxazin-6-yl)ethynyl]-2-thienyl]methyl]-1,2,4-triazol-3-one]
